Data on 29 molecules can be found in PubChem BioAssay (NCI).

Structures are written as SMILES. Values joined by “and” are separate entries in the source; they are usually repeats but may differ in a detail not shown here. Equal entries are not always repeated.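 In this assay, cells in 96-well plates receive the compound at five concentrations for 48 hours. Endpoints are linearly interpolated between the surrounding concentrations. GI50: concentration for 50% inhibition of growth. TGI denotes the concentration required for complete inhibition of growth.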 Where only a bound is given, the exact number is not on record here.

The subject of one test is MALME-3M melanoma. Nature of the test: inhibition of tumour cell growth, NCI panel, 48 h.
`CC1(C)C(=O)C(O)=CC2C1=CCC1C2(C)C(=O)CC2(C)C(C(C)(O)C(=O)CC(O)C(C)(C)O)C(O)CC12C` (centres undefined) gave a TGI of 12.1 µM.

For the molecule `CCc1ccccc1NC(=O)C(=O)C(C(=O)c1ccc(OC)cc1)c1ccc(OC)cc1` (centres undefined), the TGI is > 100 µM.

On to `COc1ccc(C(=O)N2c3ccccc3Sc3ccccc32)c(F)c1`, for which the GI50 was 16.2 µM and the TGI is > 100 µM.

For the molecule `C/C(=N/N(C=O)C[n+]1ccccc1)C(CN(CC(C)C)CC(C)C)C(=O)Nc1ccc(C)cc1C` (centres undefined), the TGI is > 100 µM.

In the case of `COc1cc(C2c3cc4c(cc3[C@@H](Nc3ccc(N(C)C)cc3)[C@H]3COC(=O)C23)OCO4)cc(OC)c1O` (some centres undefined), the GI50 was 1.6 µM; the TGI is 12.1 µM and 15 µM.

For the molecule `O=c1nc(-c2ccccc2)c2c3c(cccn13)CCC2`, the TGI is > 100 µM.

As for `COc1ccc([C@H]2CC(=O)N3CCCC3N2)cc1` (some centres undefined), the TGI is > 100 µM.

In the case of `O=C(c1ccccc1)c1c(CC(O)c2cccnc2)n(C(=O)c2ccccc2)c2ccccc12` (centres undefined), the TGI is 43.3 µM.

On to `C=C(C)C1CC2C(C)=C(OC(C)=O)C1n1c(=O)c3cc4ccccc4cc3c(=O)n12` (centres undefined), for which the TGI is > 100 µM.

Take `O=C(CCc1nc(=S)[nH][nH]1)NC12CC3CC(CC(C3)C1)C2`: the TGI is > 100 µM.

As to `CSc1nc2c(c(O)c(C)c(=O)n2C2OC(COC(C)=O)C(OC(C)=O)C(OC(C)=O)C2OC(C)=O)c(=O)n1C` (centres undefined), the TGI is > 100 µM.

Turning to `Cc1nc2c(n1CC(C)(C)C)C(=O)c1ccccc1C2=O`, the TGI was > 100 µM.

Consider `COc1ccc(C(C2=C(C)C(=O)c3ccccc3C2=O)c2ccc(C(C)C)cc(=O)c2O)cc1` (centres undefined), for which the TGI is > 100 µM.

Consider `CC(C)N(C(=O)C12C3C4C1C1C2C3C41C(O)C(C)(C)C)C(C)C` (centres undefined), for which the TGI is > 50 µM.

The subject of a further test is NCI-H226 lung. As to the kind of experiment: inhibition of tumour cell growth, NCI panel, 48 h.
Regarding `O=C1c2ccccc2N2OC3(N4CCCC4)CCCC3C12c1ccccc1` (centres undefined), the TGI is > 100 µM.

Turning to `COc1ccc(C2C(Cl)C(=O)N2n2cnc3ccccc3c2=O)cc1OC` (centres undefined), the TGI was > 100 µM.

Regarding `Nc1nc2c(ncn2Cc2ccccc2CCO)c(=O)[nH]1`, the TGI is > 100 µM.

As for `CC(C)c1ccc2nc3ccc(C(=O)NCCN(C)C)cn3c(=O)c2c1`, the TGI was found to be 37.1 µM.

Molecule `O=[N+]([O-])c1ccc(N=Nc2c(O)[nH]c3ccc([N+](=O)[O-])cc23)cc1` registered a TGI of 7 µM.

In the case of `CC12CC3(C)CC(C)(C1)CC(N=[N+]=[N-])(C2)C3`, the TGI was > 100 µM.

With `N=C(N)SCc1cn2ccccc2n1`, the TGI was > 100 µM.

In the case of `Clc1ccc([O][In]([O]c2ccc(Cl)cn2)[O]c2ccc(Cl)cn2)nc1`, the GI50 was > 100 µM and the TGI was > 100 µM.

For the molecule `Fc1cccc(Cl)c1C1SCc2nc3ccccc3n21` (centres undefined), the TGI is > 100 µM.

Regarding `COc1cc2nncc(Sc3cnnc4ccccc34)c2cc1OC`, the TGI is 67.3 µM.

Regarding `COC(=O)C1=CCON(c2ccccc2)C1c1ccccc1` (centres undefined), the TGI is > 100 µM.

For `COC(=O)c1nc(NN)[nH]c(=O)c1CCCCCc1c(C(=O)OC)[nH]c(NN)cc1=O`, the TGI was > 100 µM.

In the case of `CC1(C)C(=O)C(O)=CC2C1=CCC1C2(C)C(=O)CC2(C)C(C(C)(O)C(=O)CC(O)C(C)(C)O)C(O)CC12C` (centres undefined), the TGI was determined as 7.31 µM.

For the molecule `CCc1ccccc1NC(=O)C(=O)C(C(=O)c1ccc(OC)cc1)c1ccc(OC)cc1` (centres undefined), the TGI was > 100 µM.

For the molecule `COc1ccc(C(=O)N2c3ccccc3Sc3ccccc32)c(F)c1`, the GI50 was 2.35 µM and the TGI was > 100 µM.

As to `COc1cc(C2c3cc4c(cc3[C@@H](Nc3ccc(N(C)C)cc3)[C@H]3COC(=O)C23)OCO4)cc(OC)c1O` (some centres undefined), the GI50 is 0.3 µM.

As for `O=c1nc(-c2ccccc2)c2c3c(cccn13)CCC2`, the TGI was > 100 µM.

For `COc1ccc([C@H]2CC(=O)N3CCCC3N2)cc1` (some centres undefined), the TGI was > 100 µM.

As for `O=C(c1ccccc1)c1c(CC(O)c2cccnc2)n(C(=O)c2ccccc2)c2ccccc12` (centres undefined), the TGI amounted to 24.6 µM.

As for `C=C(C)C1CC2C(C)=C(OC(C)=O)C1n1c(=O)c3cc4ccccc4cc3c(=O)n12` (centres undefined), the TGI is > 100 µM.

Turning to `O=C(CCc1nc(=S)[nH][nH]1)NC12CC3CC(CC(C3)C1)C2`, the TGI is > 100 µM.

Take `CSc1nc2c(c(O)c(C)c(=O)n2C2OC(COC(C)=O)C(OC(C)=O)C(OC(C)=O)C2OC(C)=O)c(=O)n1C` (centres undefined): the TGI was > 100 µM.

For `Cc1nc2c(n1CC(C)(C)C)C(=O)c1ccccc1C2=O`, the TGI is > 100 µM.

`COc1ccc(C(C2=C(C)C(=O)c3ccccc3C2=O)c2ccc(C(C)C)cc(=O)c2O)cc1` (centres undefined) yielded a TGI of 4.94 µM.

For a further test, the system named is NCI-H23 lung. As to the kind of experiment: inhibition of tumour cell growth, NCI panel, 48 h.
In the case of `O=C1c2ccccc2N2OC3(N4CCCC4)CCCC3C12c1ccccc1` (centres undefined), the TGI was > 100 µM.

Take `COc1ccc(C2C(Cl)C(=O)N2n2cnc3ccccc3c2=O)cc1OC` (centres undefined): the TGI was > 100 µM.

Regarding `Nc1nc2c(ncn2Cc2ccccc2CCO)c(=O)[nH]1`, the TGI was > 100 µM.

On to `CCC1(Br)C(=O)NC(=O)N(C2CC(O)C(CO)O2)C1N=[N+]=[N-]` (centres undefined), for which the TGI is > 100 µM.

Consider `CC(C)c1ccc2nc3ccc(C(=O)NCCN(C)C)cn3c(=O)c2c1`, for which the TGI is 33.9 µM.

For the molecule `O=[N+]([O-])c1ccc(N=Nc2c(O)[nH]c3ccc([N+](=O)[O-])cc23)cc1`, the TGI amounted to 44.9 µM.

Regarding `CC12CC3(C)CC(C)(C1)CC(N=[N+]=[N-])(C2)C3`, the TGI is > 100 µM.

On to `N=C(N)SCc1cn2ccccc2n1`, for which the TGI is > 100 µM.

On to `Clc1ccc([O][In]([O]c2ccc(Cl)cn2)[O]c2ccc(Cl)cn2)nc1`, for which the GI50 is > 100 µM and the TGI was > 100 µM.

On to `Fc1cccc(Cl)c1C1SCc2nc3ccccc3n21` (centres undefined), for which the TGI was found to be 80.4 µM.

Consider `COC(=O)C1=CCON(c2ccccc2)C1c1ccccc1` (centres undefined), for which the TGI was > 100 µM.

As for `CC(=O)N(CCN)CCN`, the TGI was > 10 µM.

Molecule `Cc1cc(O)c2c(c1)C(O)(c1ccc3c(c1O)C(=O)c1c(O)cc(C)cc1C3(O)C1OC(CO)C(O)C(O)C1O)c1cccc(O)c1C2=O` (centres undefined) yielded a TGI of 31.2 µM.

`COC(=O)c1nc(NN)[nH]c(=O)c1CCCCCc1c(C(=O)OC)[nH]c(NN)cc1=O`: the TGI is > 100 µM.

For `CC1(C)C(=O)C(O)=CC2C1=CCC1C2(C)C(=O)CC2(C)C(C(C)(O)C(=O)CC(O)C(C)(C)O)C(O)CC12C` (centres undefined), the TGI came out at 67.1 µM.

Regarding `CCc1ccccc1NC(=O)C(=O)C(C(=O)c1ccc(OC)cc1)c1ccc(OC)cc1` (centres undefined), the TGI is > 100 µM.

On to `COc1ccc(C(=O)N2c3ccccc3Sc3ccccc32)c(F)c1`, for which the GI50 was 3.42 µM and the TGI is > 100 µM.

Regarding `C/C(=N/N(C=O)C[n+]1ccccc1)C(CN(CC(C)C)CC(C)C)C(=O)Nc1ccc(C)cc1C` (centres undefined), the TGI is > 100 µM.

For the molecule `COc1cc(C2c3cc4c(cc3[C@@H](Nc3ccc(N(C)C)cc3)[C@H]3COC(=O)C23)OCO4)cc(OC)c1O` (some centres undefined), the GI50 was 0.388 µM; the TGI is 0.717 µM and 3.18 µM.
